Measured values published in patent US11970483B2, “Heterocyclic compound” (Takeda Pharmaceutical Company Limited, priority 2018, dated 2024).

Assays:
Assay type in all cases: in vivo
[1] = Rat PK test (cassette dosing); details: male SD rats, plasma; for clearance / MRT: intravenous 0.1 mg/kg, 10 compounds cassette; for clearance: read-out: CL total (total clearance) (converted); for MRT: read-out: MRT iv (mean residence time, intravenous administration); for Tmax: oral administration 1 mg/kg, 5 compounds cassette, read-out: Tmax (time to reach maximum plasma concentration)
Description: As the rat, 8-week-old male SD rats (Japan SLC, Inc.) were used. They were fed on a solid commercially available diet (CE-2, CLEA Japan, Inc.) and allowed to freely ingest tap water as the drinking water. An intravenous administration solution for the rats was prepared by weighing a test compound, dissolving same in dimethylacetamide (DMA) (Wako Pure Chemical Industries, Ltd.), adding the same volume of 1,3-butanediol (Wako Pure Chemical Industries, Ltd.) and mixing by stirring to give a DMA:1,3-butanediol (1:1, v/v) solution. An oral administration solution was prepared by weighing a test compound, pulverizing same in an agate mortar, and gradually adding 0.5 w/v % aqueous methylcellulose solution to give a suspension. For intravenous administration, the solution was administered into femoral vein of the rats at 0.1 mg/0.5 mL/kg (salt converted to free form). For oral administration, the suspension was administered to the rats at 1 mg/5 mL/kg (salt converted to free form). The cassette dosing method was used for the both administration routes, and the test compound was administered in the following manner.
Compound of Example 1 (intravenous: 10 compounds cassette administration, oral: 5 compounds cassette administration)
Compound of Example 27 (intravenous: 10 compounds cassette administration, oral: 5 compounds cassette administration)
Compound of Example 28 (intravenous: 10 compounds cassette administration, oral: 5 compounds cassette administration)
Compound of Example 29 (intravenous: 10 compounds cassette administration, oral: 5 compounds cassette administration)
In the case of intravenous administration, blood samples were collected from the tail vein at 5, 10, 15, 30 min, 1, 2, 4, 8 hr after administration, an anticoagulation treatment with heparin sodium (Shimizu Pharmaceutical Co., Ltd.) was performed, and plasma was collected after centrifugation and subjected to the measurement of drug concentration. In the case of oral administration, blood samples were collected from the tail vein at 15, 30 min, 1, 2, 4, 8 hr after administration, an anticoagulation treatment with heparin sodium was performed, and plasma was collected after centrifugation and subjected to the measurement of drug concentration.
All drug concentrations were measured by LC-MS/MS analysis. For a pharmacokinetics test, the plasma (50 μL) was placed in a tube, acetonitrile (150 μL) containing internal standard solution was added and they were mixed on a vortex mixer. Thereafter, the mixture was centrifuged (5000 rpm, 5 min, 4° C.). The supernatant (60 μL) after centrifugation was added to 10 mmol/L ammonium formate (160 μL) added earlier and mixed therewith. This sample was injected to LC/MS/MS. The HPLC system used was Shimadzu LC-20A (Shimadzu Corporation), the column used was Unison UK-C18 HT (3.0 μm, 2.0×20 mm, Imtakt) at 50° C., and 10 mmol/L ammonium formate, 0.2% formic acid as mobile phase A and acetonitrile, 0.2% formic acid as mobile phase B were fed each at a flow rate of 1.2 mL/min under gradient conditions of (B concentration: 0 min→0.1 min, 5%, 0.1→0.75 min, 5-99%, 0.75→1.15 min, 99%, 1.15→1.16 min, 5%, 1.16→1.5 min, 5%). MS/MS used was AB Sciex TQ5500-MPX (Applied Biosystems).
Tmax: time to reach maximum plasma concentration
iv: intravenous administration
CL total: total clearance

[2] = tested on: Male ICR mice; experiment: Mouse defecation experiment; details: oral, mean±standard error
Description: Mouse Defecation Experiment
(§1) Male ICR mice (6-7 weeks old) were used after an acclimation period for about 1 week. A test drug (1 mg/kg or 3 mg/kg) was suspended in 0.5% methylcellulose solution and orally administered at a volume of 10 mL/kg, and the number of feces 2 hr later was counted. Only 0.5% methylcellulose was administered to a solvent administration group.

[3] = tested on: Male SD rats; experiment: Rat defecation experiment; details: oral, mean±standard error
Description: Rat Defecation Experiment
as §1, with “SD rats (5-6” for “ICR mice (6-7”, “5” for “10”

SMILES | clearance [1] | MRT [1] | Tmax [1] | number of feces 2 hr later ([2]; 1 mg/kg) | number of feces 2 hr later ([2]; 3 mg/kg) | number of feces 2 hr later ([3]; 1 mg/kg) | number of feces 2 hr later ([3]; 3 mg/kg)
Cc1c(Cc2ccc(C(=O)NCC(=O)N(C)C)c(F)c2)cc(C(=O)N[C@H]2CCOC[C@@H]2O)c2c1CCO2 [Example 28, 1,5-anhydro-2,3-dideoxy-3-({5-[(4-{[2-(dimethylamino)-2-oxoethyl]carbamoyl}-3-fluorophenyl)methyl]-4-methyl-2,3-dihydro-1-benzofuran-7-carbonyl}amino)-L-threo-pentitol] | 18.9 mL/min/kg | 36 min | 48 min | 7.2 ± 1.9 | 6.2 ± 1.3 | 8.0 ± 1.0 | 8.1 ± 1.4
Cc1c(Cc2ccc(C(=O)NC[C@H]3CCCO3)c(F)c2)cc(C(=O)N[C@H]2CCOC[C@@H]2O)c2c1CCO2 [Example 29, 1,5-anhydro-2,3-dideoxy-3-[(5-{[3-fluoro-4-({[(2R)-oxolan-2-yl]methyl}carbamoyl)phenyl]methyl}-4-methyl-2,3-dihydro-1-benzofuran-7-carbonyl)amino]-L-threo-pentitol] | 27.5 mL/min/kg | 36 min | 30 min | – | – | 5.0 ± 0.8 | 9.0 ± 0.7
COCCNC(=O)c1ccc(Cc2cc(C(=O)N[C@H]3CCOC[C@@H]3O)c3c(c2C)CCO3)cc1F [Example 27, 1,5-anhydro-2,3-dideoxy-3-{[5-({3-fluoro-4-[(2-methoxyethyl)carbamoyl]phenyl}methyl)-4-methyl-2,3-dihydro-1-benzofuran-7-carbonyl]amino}-L-threo-pentitol] | 19.6 mL/min/kg | 42 min | 60 min | 7.4 ± 0.9 | 6.2 ± 1.0 | – | –
Cc1c(Cc2ccc(-c3cn(C)nn3)cc2)cc(C(=O)N[C@H]2CCOC[C@@H]2O)c2c1CCO2 [Example 1, 1,5-anhydro-2,3-dideoxy-3-[(4-methyl-5-{[4-(1-methyl-1H-1,2,3-triazol-4-yl)phenyl]methyl}-2,3-dihydro-1-benzofuran-7-carbonyl)amino]-L-threo-pentitol] | 3.08 mL/min/kg | 108 min | 60 min | 8.8 ± 2.1 | – | – | –
